Consider 2 molecules from US12595269B2, “Morpholine-like monoamine releasers” (Solvonis Therapeutics Ireland Holdings Limited, priority 2022, dated 2026).

Each structure is given as a SMILES string. Like-named read-outs stand apart in the source and are kept apart here.

For one data set, the target named is T1, CYP2B6 (Homo sapiens, UniProt P20813).
T1 construct: purchased Life Technologies P3028; host or cells: Baculosomes
T1 sequence (P20813 1-491): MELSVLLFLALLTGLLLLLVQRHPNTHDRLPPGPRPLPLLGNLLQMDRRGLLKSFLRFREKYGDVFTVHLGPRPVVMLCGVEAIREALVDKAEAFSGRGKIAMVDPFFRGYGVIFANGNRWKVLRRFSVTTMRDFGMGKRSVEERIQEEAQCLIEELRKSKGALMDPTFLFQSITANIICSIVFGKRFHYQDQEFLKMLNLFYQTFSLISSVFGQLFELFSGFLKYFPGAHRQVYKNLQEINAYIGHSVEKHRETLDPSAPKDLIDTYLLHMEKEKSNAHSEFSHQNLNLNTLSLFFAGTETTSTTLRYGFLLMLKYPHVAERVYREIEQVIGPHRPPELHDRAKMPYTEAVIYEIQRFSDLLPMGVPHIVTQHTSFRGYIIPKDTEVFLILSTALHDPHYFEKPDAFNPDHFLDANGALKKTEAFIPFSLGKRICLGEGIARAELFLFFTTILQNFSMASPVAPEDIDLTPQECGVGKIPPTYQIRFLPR
Put plainly: CYP450 inhibition, Vivid CYP2B6 Baculosomes, BOMCC substrate. The class given is in vitro ADME. The procedure:
Methods and Procedure: The study was performed in agreement with previously described procedures to assure data integrity and adherence to GLP standards. Briefly, recombinant human CYP450 isoenzymes were used to metabolize pro-fluorescent probe substrates to fluorescent products. IC50 values determined from the effect of test compounds on the metabolism of these probe substrates were then used to determine inhibitory potency against CYP450 isoforms.
The test system was based on a three-step procedure with a “mix and read” format, where PGP-432,TI reaction and reading were performed at 37° C. […] Fluorescence was measured in kinetic mode (1 read/minutes for 10 minutes), and the fluorescence rate was calculated. […]
Next, 10 μL/well from the compound plate was added and incubated for 10 minutes at 37° C. on a plate shaker, while a mixture of Vivid Substrate and Vivid NADP+ in Vivid CYP450 Reaction Buffer was prepared. The reaction was initiated by adding 10 μL/well of the Vivid Substrate and NADP+ mixture, before transferring the plate into the fluorescent plate reader (immediately, within 2 minutes), and fluorescence was monitored every minute for 10 minutes according to the specific protocol. Regarding data analysis, the inhibition effect is expressed as a percentage. […]

A further data set has as its target T2, human 5-HT2A receptor (Homo sapiens, UniProt P28223).
T2 construct: expressed in transfected cells; host or cells: CHO
Briefly: Intracellular calcium response (FLIPR) in CHO cells expressing human 5-HT2A receptor, agonist and antagonist modes. Type of data set: cell-based.

T2 sequence (P28223 whole entry): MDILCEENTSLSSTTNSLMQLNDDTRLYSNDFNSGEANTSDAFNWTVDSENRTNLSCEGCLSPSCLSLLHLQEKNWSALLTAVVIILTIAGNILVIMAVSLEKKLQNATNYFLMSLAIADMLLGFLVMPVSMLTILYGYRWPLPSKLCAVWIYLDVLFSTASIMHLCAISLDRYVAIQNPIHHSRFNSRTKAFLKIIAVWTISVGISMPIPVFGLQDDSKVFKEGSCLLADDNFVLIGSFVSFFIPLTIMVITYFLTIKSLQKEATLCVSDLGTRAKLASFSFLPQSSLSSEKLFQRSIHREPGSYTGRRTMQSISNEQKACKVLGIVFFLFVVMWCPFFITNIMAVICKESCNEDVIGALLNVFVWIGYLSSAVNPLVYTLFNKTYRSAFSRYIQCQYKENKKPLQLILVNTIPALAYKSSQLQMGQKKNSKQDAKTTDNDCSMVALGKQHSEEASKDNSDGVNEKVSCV
Procedure for human 5-HT2A receptor: Methods and Procedure: Selectivity for the 5-HT2A receptor was assessed by measuring [Ca^2+]; in a CHO recombinant cell line stably expressing the human 5-HT2A receptor, using Fluorometric Imaging Plate Reader (FLIPR TETRA, Molecular Devices).
The day before the experiment, CHO cells were seeded into clear-bottom 384-well plates at a density of 10,000 cells per well, in F-12K Medium (ThermoFisher #21127) supplemented with 10% dialyzed fetal bovine serum, and grown overnight at 37° C., 5% CO2.
On the day of the experiment, the medium was replaced with assay buffer (20 mM HEPES, 145 mM NaCl, 5 mM KCl, 5.5 mM glucose, 1 mM MgCl2, 2 mM CaCl2 and 2.5 mM probenecid, pH 7.4) containing the cytoplasmic Ca^2+ indicator Fluo-4 AM at 2 μM and 0.02% Pluronic F-127. After an incubation of 45-60 minutes at 37° C., 0% CO2, cells were washed by Microplate Washer (BIOTEK) 384 with assay buffer, and the plate was transferred in the FLIPR TETRA. Then, intracellular fluorescence was measured in real time by FLIPR TETRA (excitation wavelength at 470-495 nm, emission wavelength at 515-575 nm), using a dual addition protocol.
In the first addition, test compounds (11 points of 1:4 serial dilution, 0.5% DMSO final) were added to the cell plate to evaluate their effect on intracellular calcium levels. In the event of a response, the signal was elaborated for the determination of pEC50/EC50 values. […] Inhibition of 5-HT response vs. vehicle effect (0.5% DMSO) was elaborated for the determination of pIC50/IC50 values. […] A CRC of ketanserin was used as the internal antagonist control.

For orientation: IC50 means the concentration needed to halve the response being measured. In the case of `Clc1ccc(C23CNC(CO2)C3)cc1Cl` (stereo not drawn) [522A, 1-(3,4-dichlorophenyl)-2-oxa-5-azabicyclo[2.2.1]heptane], the IC50 on CYP2B6 (recombinant human CYP2B6) turned out to be 41 µM. Further, the EC50 at human 5-HT2A receptor (agonist mode, CHO cells, calcium response, read-out: 5-HT2A agonist selectivity (pEC50) (converted)) is 50.1 µM; on human 5-HT2A receptor (antagonist mode, versus serotonin EC80, read-out: 5-HT2A antagonist selectivity (represented as pEC50) (converted)) it was 3.98 µM.
On to `CNC(C)Cc1ccc2c(c1)OCO2` (stereo not drawn) [MDMA, reference compound], for which the 50% inhibitory concentration (IC50) at 10 min on CYP2B6 (human, recombinant CYP2B6 Baculosomes, pH 8, probe Vivid BOMCC) came out at 50 µM. The EC50 on human 5-HT2A receptor (5-HT2A agonist selectivity (pEC50), agonist mode, CHO cells, calcium response) was > 50.1 µM; on human 5-HT2A receptor (5-HT2A antagonist selectivity (represented as pEC50), antagonist mode, versus serotonin EC80) it was > 50.1 µM.
